Numbered stars: 1 amine (or outer) side, 2 acyl side, 3 side chain; on linkers, the order of the positions; unused ones are H or OH. Bridge positions count the residues as written; N and C are the ends. Square brackets hold non-standard residues; d marks the D form. Peptide text beside a SMILES is read from it. Trp(βS-Me,7-OMe) = COc1cccc2c([C@H](C)[C@H](N)C(=O)O)c[nH]c12; Trp(βS-Me) = C[C@@H](c1c[nH]c2ccccc12)[C@H](N)C(=O)O; Phe(4-NHCONH2) = NC(=O)Nc1ccc(C[C@H](N)C(=O)O)cc1; X69 = O=C(O)C12CC(C[C@H](N[*:1])C(=O)[*:2])(C1)C2; Trp(7-Br) = N[C@@H](Cc1c[nH]c2c(Br)cccc12)C(=O)O; Trp(7-CN) = N#Cc1cccc2c(C[C@H](N)C(=O)O)c[nH]c12; Trp(7-Cl) = N[C@@H](Cc1c[nH]c2c(Cl)cccc12)C(=O)O; Ala(piperazin-1-yl) = N[C@@H](CN1CCNCC1)C(=O)O; Phe(3-CONH2) = NC(=O)c1cccc(C[C@H](N)C(=O)O)c1; Phe(4-CONH2) = NC(=O)c1ccc(C[C@H](N)C(=O)O)cc1; Phe(4-COOH) = N[C@@H](Cc1ccc(C(=O)O)cc1)C(=O)O; 4Pal(3S-Me) = C[C@@H](c1ccncc1)[C@H](N)C(=O)O; Trp(7-aza) = N[C@@H](Cc1c[nH]c2ncccc12)C(=O)O; Phe(4-CH2NH2) = NCc1ccc(C[C@H](N)C(=O)O)cc1; Pip(5R-OH) = O=C(O)[C@@H]1CC[C@@H](O)CN1; αMeW = C[C@](N)(Cc1c[nH]c2ccccc12)C(=O)O; Lys(N3) = [N-]=[N+]=NCCCC[C@H](N)C(=O)O; X1 = O=C([C@@H]1CC[C@H](N[*:1])C1)[*:2]; Orn(N3) = [N-]=[N+]=NCCC[C@H](N)C(=O)O; 2Nal = N[C@@H](Cc1ccc2ccccc2c1)C(=O)O; Pip(4-aza) = O=C(O)[C@@H]1CNCCN1; 3Pal = N[C@@H](Cc1cccnc1)C(=O)O; 4Pal = N[C@@H](Cc1ccncc1)C(=O)O; NMeE = CN[C@@H](CCC(=O)O)C(=O)O; dHyp = O=C(O)[C@H]1C[C@H](O)CN1; Ahp(2) = CCCCC[C@H](N)C(=O)O; αMeS = C[C@](N)(CO)C(=O)O; Nle = CCCC[C@H](N)C(=O)O; dNMeA = CN[C@H](C)C(=O)O; Dap = NC[C@H](N)C(=O)O; Sar = CNCC(=O)O
Target: T1, human soluble TNFR1 (sTNFR1) (Homo sapiens, UniProt P19438)
T1 construct: made in house; host or cells: Sf21 (baculovirus)
T1 sequence (P19438 with tags, fused parts or gaps): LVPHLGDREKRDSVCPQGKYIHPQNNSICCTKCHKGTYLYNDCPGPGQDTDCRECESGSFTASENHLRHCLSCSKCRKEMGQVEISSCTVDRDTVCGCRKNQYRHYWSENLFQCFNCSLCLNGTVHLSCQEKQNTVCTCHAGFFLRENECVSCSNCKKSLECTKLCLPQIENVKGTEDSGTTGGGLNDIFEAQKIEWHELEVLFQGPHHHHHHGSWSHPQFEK
Test: Human sTNFR1-peptide displacement assay (LanthaScreen Eu TR-FRET binding assay)
Procedure: A. Procedure for Human sTNFR1-Peptide Displacement Assay
The affinity was determined using LanthaScreen Eu-based time-resolved fluorescence resonance energy transfer (TR-FRET)-based binding assay.
A TR-FRET assay measuring the displacement of biotinylated peptide SEQ ID NO. 1 from human soluble TNFR1 (sTNFR1) in a pre-formed complex by a macrocyclic peptide yields the affinity (Kd^app) of the cyclic peptide for sTNFR1. The reagents for the assay include: the C′-terminally 6His-tagged sTNFR1 (residues 1-211) protein purified from a Sf21 baculovirus expression system, the biotin-tagged B0372 peptide described in section “Preparation of Final Compounds”, part E, the LanthaScreen™ anti-His Tag Europium donor (Life Technologies Corporation (San Diego, CA), cat. #PV5597), and a streptavidin-conjugate Alexa Fluor™ 647 acceptor (Invitrogen (Waltham, MA), cat. #S32357). Time-resolved TR-FRET is achieved when sTNFR1 is bound to biotinylated peptide SEQ ID NO. 1 through coupling of the donor and acceptor FRET pair.
100 nM biotinylated peptide SEQ ID NO. […] 100 nM biotinylated peptide SEQ ID NO. 1 was chosen as it reflects the ˜Kd for this complex. After 30 min at ambient temperature, each test peptide (2 mM stock in DMSO) is titrated in a 20 point, ˜3-fold discrete dose-response using an acoustic-dispense liquid handler. Specifically, 80 nL of peptide/DMSO is transferred into a ProxiPlate-384 Plus 384-well assay plate (PerkinElmer, cat. #6008289). To this plate, 8 μL of the previously formed sTNFR 1-biotinylated peptide SEQ ID NO. 1 complex is added and allowed to reach binding equilibrium with the test peptide at ambient temperature for 90 min.
The TR-FRET signal is measured with the following EnVision® settings: excitation laser at 337 nm; emission1=615 nm, emission2=665 nm, LANCE/DELFIA dichroic mirror, delay time=[…]. The signal of each well is determined as the ratio of the emission at 665 nm to that at 615 nm. Percent displacement is determined by normalization to control wells containing DMSO (0%) or a saturating concentration of a displaceable peptide (100%). The %-effect as a function of peptide concentration is fit to a five-parameter logistic fit based on the Morrison equation to account for tight binding kinetics.

SMILES	IC50 [nM]	Kd [nM]
C[C@@H](c1c[nH]c2ccccc12)[C@@H]1NC(=O)[C@H](CN)NC(=O)[C@H](Cc2ccc(O)cc2)NC(=O)[C@H](CCCN=[N+]=[N-])NC(=O)CSC[C@@H](C(N)=O)NC(=O)[C@](C)(Cc2c[nH]c3ccccc23)NC(=O)CN(C)C(=O)[C@H](Cc2c[nH]cn2)NC(=O)[C@H](Cc2ccc(C(=O)O)cc2)NC(=O)[C@](C)(CO)NC(=O)[C@H](Cc2c[nH]c3c(Cl)cccc23)NC(=O)[C@H](Cc2ccncc2)NC(=O)[C@H](CC(N)=O)NC(=O)[C@H]2CCCN2C1=O [SEQ ID NO. 146] ({CH2CO}-[Orn(N3)]Y[Dap][Trp(βS-Me)][dP]N[4Pal][Trp(7-Cl)][αMeS][Phe(4-COOH)]H[Sar][αMeW]C-NH2; thioether N-14)	0.59	–
CCCCC[C@@H]1NC(=O)[C@@H]2CC[C@@H](C2)NC(=O)[C@H]([C@@H](C)c2c[nH]c3c(OC)cccc23)NC(=O)CN(C)C(=O)[C@H](Cc2cccc(C(N)=O)c2)NC(=O)[C@H](Cc2ccc(C(=O)O)cc2)NC(=O)[C@](C)(CO)NC(=O)[C@H](Cc2c[nH]c3c(Br)cccc23)NC(=O)[C@H](Cc2ccc(C(=O)O)cc2)NC(=O)[C@H](CC(N)=O)NC(=O)[C@H]2C[C@H](O)CN2C(=O)[C@H](Cc2c[nH]c3ccccc23)NC(=O)[C@@H]2CNCCN2C(=O)[C@H](Cc2ccncc2)NC1=O [SEQ ID NO. 85] (cyclo([4Pal][Pip(4-aza)]W[dHyp]N[Phe(4-COOH)][Trp(7-Br)][αMeS][Phe(4-COOH)][Phe(3-CONH2)][Sar][Trp(βS-Me,7-OMe)][X1][Ahp(2)]))	–	0.11
CCCC[C@@H]1NC(=O)[C@@H]2CC[C@@H](C2)NC(=O)[C@H]([C@@H](C)c2c[nH]c3c(OC)cccc23)NC(=O)CN(C)C(=O)[C@H](Cc2ccc(C(N)=O)cc2)NC(=O)[C@H](Cc2ccc(C(N)=O)cc2)NC(=O)[C@](C)(CO)NC(=O)[C@H](Cc2c[nH]c3c(C#N)cccc23)NC(=O)[C@H](CC23CC(C(=O)O)(C2)C3)NC(=O)[C@H](CC(N)=O)NC(=O)[C@H]2C[C@H](O)CN2C(=O)[C@H](Cc2c[nH]c3ncccc23)NC(=O)[C@@H]2CC[C@@H](O)CN2C(=O)[C@H](Cc2ccncc2)NC1=O [SEQ ID NO. 26] (cyclo([4Pal][Pip(5R-OH)][Trp(7-aza)][dHyp]N[X69][Trp(7-CN)][αMeS][Phe(4-CONH2)][Phe(4-CONH2)][Sar][Trp(βS-Me,7-OMe)][X1][Nle]))	–	0.24
CCCCC[C@@H]1NC(=O)[C@@H]2CC[C@@H](C2)NC(=O)[C@H]([C@@H](C)c2c[nH]c3c(OC)cccc23)NC(=O)CN(C)C(=O)[C@H](Cc2ccc(C(N)=O)cc2)NC(=O)[C@H](Cc2ccc(C(N)=O)cc2)NC(=O)[C@](C)(CO)NC(=O)[C@H](Cc2c[nH]c3c(C#N)cccc23)NC(=O)[C@H](Cc2ccc(C(=O)O)cc2)NC(=O)[C@H](CC(N)=O)NC(=O)[C@H]2C[C@H](O)CN2C(=O)[C@H](Cc2c[nH]c3ccccc23)NC(=O)[C@H]([C@@H](C)O)NC(=O)[C@H]([C@@H](C)c2ccncc2)NC1=O [SEQ ID NO. 234] (cyclo([Ahp(2)][4Pal(3S-Me)]TW[dHyp]N[Phe(4-COOH)][Trp(7-CN)][αMeS][Phe(4-CONH2)][Phe(4-CONH2)][Sar][Trp(βS-Me,7-OMe)][X1]))	–	0.24
CCCC[C@@H]1NC(=O)CSC[C@@H](C(N)=O)NC(=O)[C@H]([C@@H](C)c2c[nH]c3c(OC)cccc23)NC(=O)[C@@H](C)N(C)C(=O)[C@H](Cc2ccc(O)cc2)NC(=O)[C@H](Cc2ccc(C(=O)O)cc2)NC(=O)[C@](C)(CO)NC(=O)[C@H](Cc2c[nH]c3c(Cl)cccc23)NC(=O)[C@H](Cc2ccncc2)NC(=O)[C@H](CC(N)=O)NC(=O)[C@H]2CCCN2C(=O)[C@H](Cc2c[nH]c3ccccc23)NC(=O)[C@@H]2CNCCN2C(=O)[C@H](Cc2ccncc2)NC1=O [SEQ ID NO. 276] ({CH2CO}-[Nle][4Pal][Pip(4-aza)]W[dP]N[4Pal][Trp(7-Cl)][αMeS][Phe(4-COOH)]Y[dNMeA][Trp(βS-Me,7-OMe)]C-NH2; thioether N-14)	2.41	–
CCCCC[C@@H]1NC(=O)CSC[C@@H](C(N)=O)NC(=O)[C@](C)(Cc2c[nH]c3ccccc23)NC(=O)CN(C)C(=O)[C@H](Cc2cccnc2)NC(=O)[C@H](Cc2ccc(C(=O)O)cc2)NC(=O)[C@](C)(CO)NC(=O)[C@H](Cc2c[nH]c3c(Cl)cccc23)NC(=O)[C@H](Cc2ccncc2)NC(=O)[C@H](CC(N)=O)NC(=O)[C@H]2CCCN2C(=O)[C@H]([C@@H](C)c2c[nH]c3ccccc23)NC(=O)[C@H](CN2CCNCC2)NC(=O)[C@H](Cc2ccc(O)cc2)NC1=O [SEQ ID NO. 226] ({CH2CO}-[Ahp(2)]Y[Ala(piperazin-1-yl)][Trp(βS-Me)][dP]N[4Pal][Trp(7-Cl)][αMeS][Phe(4-COOH)][3Pal][Sar][αMeW]C-NH2; thioether N-14)	1.16	–
CCCC[C@@H]1NC(=O)[C@@H]2CC[C@@H](C2)NC(=O)[C@H]([C@@H](C)c2c[nH]c3c(OC)cccc23)NC(=O)CN(C)C(=O)[C@H](Cc2ccc(O)cc2)NC(=O)[C@H](Cc2ccc(C(N)=O)cc2)NC(=O)[C@](C)(CO)NC(=O)[C@H](Cc2c[nH]c3c(Cl)cccc23)NC(=O)[C@H](Cc2ccc(NC(N)=O)cc2)NC(=O)[C@H](CC(N)=O)NC(=O)[C@H](CCC(=O)O)N(C)C(=O)[C@H](Cc2c[nH]c3ccccc23)NC(=O)[C@@H]2CC[C@@H](O)CN2C(=O)[C@H](Cc2ccncc2)NC1=O [SEQ ID NO. 165] (cyclo([4Pal][Pip(5R-OH)]W[NMeE]N[Phe(4-NHCONH2)][Trp(7-Cl)][αMeS][Phe(4-CONH2)]Y[Sar][Trp(βS-Me,7-OMe)][X1][Nle]))	–	0.18
CCCC[C@@H]1NC(=O)CSC[C@@H](C(=O)NCC(=O)N[C@@H](CCC(=O)O)C(=O)N[C@@H](CCC(=O)O)C(N)=O)NC(=O)[C@H]([C@@H](C)c2c[nH]c3c(OC)cccc23)NC(=O)CN(C)C(=O)[C@H](Cc2ccc(O)cc2)NC(=O)[C@H](Cc2ccc(C(=O)O)cc2)NC(=O)[C@](C)(CO)NC(=O)[C@H](Cc2c[nH]c3c(Cl)cccc23)NC(=O)[C@H](Cc2ccncc2)NC(=O)[C@H](CC(N)=O)NC(=O)[C@H](CCC(=O)O)N(C)C(=O)[C@H](Cc2c[nH]c3ncccc23)NC(=O)[C@@H]2CNCCN2C(=O)[C@H](Cc2ccncc2)NC1=O [SEQ ID NO. 255] ({CH2CO}-[Nle][4Pal][Pip(4-aza)][Trp(7-aza)][NMeE]N[4Pal][Trp(7-Cl)][αMeS][Phe(4-COOH)]Y[Sar][Trp(βS-Me,7-OMe)]CGEE-NH2; thioether N-14)	0.7	1.01
CCCCC[C@@H]1NC(=O)CSC[C@@H](C(N)=O)NC(=O)[C@](C)(Cc2c[nH]c3ccccc23)NC(=O)CN(C)C(=O)[C@H](Cc2c[nH]cn2)NC(=O)[C@H](Cc2ccc(C(=O)O)cc2)NC(=O)[C@](C)(CO)NC(=O)[C@H](Cc2ccc3ccccc3c2)NC(=O)[C@H](Cc2ccc(C(=O)O)cc2)NC(=O)[C@H](CC(N)=O)NC(=O)[C@H]2CCCN2C(=O)[C@H]([C@@H](C)c2c[nH]c3ccccc23)NC(=O)[C@H](CO)NC(=O)[C@H](Cc2ccncc2)NC1=O [SEQ ID NO. 237] ({CH2CO}-[Ahp(2)][4Pal]S[Trp(βS-Me)][dP]N[Phe(4-COOH)][2Nal][αMeS][Phe(4-COOH)]H[Sar][αMeW]C-NH2; thioether N-14)	13	–
C[C@@H](c1c[nH]c2ccccc12)[C@@H]1NC(=O)[C@H](CN)NC(=O)[C@H](Cc2ccncc2)NC(=O)[C@H](CCCCN=[N+]=[N-])NC(=O)CSC[C@@H](C(N)=O)NC(=O)[C@](C)(Cc2c[nH]c3ccccc23)NC(=O)CN(C)C(=O)[C@H](Cc2ccc(CN)cc2)NC(=O)[C@H](Cc2ccc(C(=O)O)cc2)NC(=O)[C@](C)(CO)NC(=O)[C@H](Cc2c[nH]c3c(Cl)cccc23)NC(=O)[C@H](Cc2ccncc2)NC(=O)[C@H](CC(N)=O)NC(=O)[C@H]2CCCN2C1=O [SEQ ID NO. 245] ({CH2CO}-[Lys(N3)][4Pal][Dap][Trp(βS-Me)][dP]N[4Pal][Trp(7-Cl)][αMeS][Phe(4-COOH)][Phe(4-CH2NH2)][Sar][αMeW]C-NH2; thioether N-14)	0.95	–

From patent US20240287138A1, “CYCLIC PEPTIDES FOR INHIBITING TNF RECEPTOR 1 ACTIVITY” (Merck Sharp & Dohme LLC, priority 2023, published 2024)
